Experimental data: US20250197377A1, “NOVEL PHARMACEUTICAL SALTS AND POLYMORPHIC FORMS OF AN ERBB AND BTK INHIBITOR” (DIZAL (JIANGSU) PHARMACEUTICAL CO., LTD., priority 2021, published 2025)

How the values were obtained:
[1] = Solubility in bio-relevant media; format: physicochemical; settings: for solubility at 24 h: salts; for pH value: solubility sample of salt
[2] = Form A and Form B inter-conversion study (competitive slurry, XRPD); format: physicochemical
Description: Competitive slurry experiments were conducted to evaluate the relative stability of Form A and Form B. Inter-conversion study was performed at room temperature and 50° C. using single and binary solvents listed in the Table 1 below. About 80 mg (100 mg for 50° C.) of Form A and Form B (1:1, w/w) was weighed into sample vials (8 mL) and then 3 mL (2 mL for 50° C.) of solvents were added to each vial. The obtained suspensions were kept stirring for 7 days at room temperature and 50° C., then filtered at specified time. The wet and dried solids were analyzed by XRPD (dried in vacuum oven at 45° C.).
Form B was dominant in tested solvent systems with water activity below 0.15 at room temperature (24˜27° C.). […] Pure Form A and Form B were stable during drying process (50° C., vacuum) for at least 2 days.

**Q.** For `C=CC(=O)Nc1cc(Nc2nccc(Nc3cc(Cl)c(F)cc3C(C)(C)O)n2)c(OC)cc1N1CC[C@@H](N(C)C)C1.O=C(O)/C=C/C(=O)O` [Fumaric acid salt, (R)—N-(5-((4-((5-chloro-4-fluoro-2-(2-hydroxypropan-2-yl)phenyl)amino)pyrimidin-2-yl)amino)-2-(3-(dimethylamino)pyrrolidin-1-yl)-4-methoxyphenyl)acrylamide fumarate], which solubility at 24 h ([1]; FaSSIF) is on record?
**A.** > 10.1 mg/mL

**Q.** And the pH value ([1]; FaSSIF)?
**A.** 5.22

**Q.** And the solubility at 24 h ([1]; FeSSIF)?
**A.** > 9.75 mg/mL

**Q.** And the pH value ([1]; FeSSIF)?
**A.** 4.94

**Q.** What about the solubility at 24 h ([1]; SGF, simulated gastric fluid) of the same compound?
**A.** > 12.2 mg/mL

**Q.** And the pH value ([1]; SGF)?
**A.** 3.98

**Q.** Which “XRPD results of slurry” value ([2]; 1% water/acetone, 24~27° C., 1 d, after dry) does the source give for `C=CC(=O)Nc1cc(Nc2nccc(Nc3cc(Cl)c(F)cc3C(C)(C)O)n2)c(OC)cc1N1CC[C@@H](N(C)C)C1` [Form A and Form B (1:1, w/w), (R)-N-(5-((4-((5-chloro-4-fluoro-2-(2-hydroxypropan-2-yl)phenyl)amino)pyrimidin-2-yl)amino)-2-(3-(dimethylamino)pyrrolidin-1-yl)-4-methoxyphenyl)acrylamide] here?
**A.** A + B

**Q.** What about the “XRPD results of slurry” value ([2]; 1% water/acetone, 24~27° C., 1 d, before dry) of the same compound?
**A.** A + B

**Q.** And the “XRPD results of slurry” value ([2]; 1% water/acetone, 24~27° C., 3 d, after dry)?
**A.** A + B

**Q.** What about the “XRPD results of slurry” value ([2]; 1% water/acetone, 24~27° C., 3 d, before dry) of the same compound?
**A.** A + B

**Q.** And the “XRPD results of slurry” value ([2]; 1% water/acetone, 24~27° C., 7 d, before dry)?
**A.** A + B(increased)

**Q.** What about the “XRPD results of slurry” value ([2]; 30% water/acetone, 24~27° C., 1 d, after dry) of the same compound?
**A.** A + B

**Q.** What about the “XRPD results of slurry” value ([2]; 30% water/acetone, 24~27° C., 1 d, before dry) of the same compound?
**A.** A + B

**Q.** What about the “XRPD results of slurry” value ([2]; 30% water/acetone, 24~27° C., 7 d, before dry) of the same compound?
**A.** A + B

**Q.** What about the “XRPD results of slurry” value ([2]; 30% water/acetone, 50° C., 1 d, after dry) of the same compound?
**A.** A + B

**Q.** What about the “XRPD results of slurry” value ([2]; 30% water/acetone, 50° C., 1 d, before dry) of the same compound?
**A.** A + B

**Q.** And the “XRPD results of slurry” value ([2]; Acetone (no water), 50° C., 1 d, before dry)?
**A.** A (minor) + B

**Q.** And the “XRPD results of slurry” value ([2]; Acetone(no water), 24~27° C., 1 d, after dry)?
**A.** A + B

**Q.** And the “XRPD results of slurry” value ([2]; Acetone(no water), 24~27° C., 1 d, before dry)?
**A.** A + B

**Q.** What about the “XRPD results of slurry” value ([2]; Acetone(no water), 24~27° C., 3 d, after dry) of the same compound?
**A.** A + B

**Q.** And the “XRPD results of slurry” value ([2]; Acetone(no water), 24~27° C., 3 d, before dry)?
**A.** A + B

**Q.** What about the “XRPD results of slurry” value ([2]; Acetone(no water), 24~27° C., 7 d, before dry) of the same compound?
**A.** A + B(increased)

**Q.** And the “XRPD results of slurry” value ([2]; EtOH/IPA (1/1), 24~27° C., 1 d, after dry)?
**A.** A + B

**Q.** What about the “XRPD results of slurry” value ([2]; EtOH/IPA (1/1), 24~27° C., 1 d, before dry) of the same compound?
**A.** A + B

**Q.** What about the “XRPD results of slurry” value ([2]; EtOH/IPA (1/1), 24~27° C., 7 d, before dry) of the same compound?
**A.** A + B(increased)

**Q.** And the “XRPD results of slurry” value ([2]; EtOH/IPA (7/2), 24~27° C., 1 d, after dry)?
**A.** A + B

**Q.** What about the “XRPD results of slurry” value ([2]; EtOH/IPA (7/2), 24~27° C., 1 d, before dry) of the same compound?
**A.** A + B

**Q.** And the “XRPD results of slurry” value ([2]; EtOH/IPA (7/2), 24~27° C., 7 d, before dry)?
**A.** A + B(increased)

**Q.** What about the “XRPD results of slurry” value ([2]; EtOH/water (1/1), 24~27° C., 1 d, after dry) of the same compound?
**A.** A + B

**Q.** And the “XRPD results of slurry” value ([2]; EtOH/water (1/1), 24~27° C., 1 d, before dry)?
**A.** A + B

**Q.** What about the “XRPD results of slurry” value ([2]; EtOH/water (1/1), 24~27° C., 7 d, before dry) of the same compound?
**A.** A + B

**Q.** What about the “XRPD results of slurry” value ([2]; Water, 24~27° C., 1 d, after dry) of the same compound?
**A.** A + B

**Q.** What about the “XRPD results of slurry” value ([2]; Water, 24~27° C., 1 d, before dry) of the same compound?
**A.** A + B

**Q.** And the “XRPD results of slurry” value ([2]; Water, 24~27° C., 3 d, after dry)?
**A.** A + B

**Q.** And the “XRPD results of slurry” value ([2]; Water, 24~27° C., 3 d, before dry)?
**A.** A + B

**Q.** What about the “XRPD results of slurry” value ([2]; Water, 24~27° C., 7 d, before dry) of the same compound?
**A.** A + B

**Q.** And the “XRPD results of slurry” value ([2]; Water, 50° C., 1 d, after dry)?
**A.** A + B

**Q.** What about the “XRPD results of slurry” value ([2]; Water, 50° C., 1 d, before dry) of the same compound?
**A.** A + B

**Q.** And the “XRPD results of slurry” value ([2]; Water, 50° C., 3 d, after dry)?
**A.** A + B

**Q.** And the “XRPD results of slurry” value ([2]; Water, 50° C., 3 d, before dry)?
**A.** A + B

**Q.** What about the “XRPD results of slurry” value ([2]; Water, 50° C., 7 d, before dry) of the same compound?
**A.** A + B

**Q.** What does the source list for `C=CC(=O)Nc1cc(Nc2nccc(Nc3cc(Cl)c(F)cc3C(C)(C)O)n2)c(OC)cc1N1CC[C@@H](N(C)C)C1.Cl` [Hydrochloric acid salt, (R)—N-(5-((4-((5-chloro-4-fluoro-2-(2-hydroxypropan-2-yl)phenyl)amino)pyrimidin-2-yl)amino)-2-(3-(dimethylamino)pyrrolidin-1-yl)-4-methoxyphenyl)acrylamide Hydrochloride]?
**A.** solubility at 24 h ([1]; FaSSIF): 1.95 mg/mL; pH value ([1]; FaSSIF): 6.62; solubility at 24 h ([1]; FeSSIF): > 11.1 mg/mL; pH value ([1]; FeSSIF): 5.44; solubility at 24 h ([1]; SGF, simulated gastric fluid): 11.8 mg/mL; pH value ([1]; SGF): 5.65
